Drawing on patent US10414769B2, “5,8-dimethyl-9-phenyl-5,8-dihydro-6H-pyrazolo[3,4-h]quinazolin-2-yl)-(1H-pyrazol-3-yl)-amines as IGF-1R/IR inhibitors” (Boehringer Ingelheim International GmbH, priority 2015, dated 2019), this text covers inhibition for seven compounds.

Holding throughout (type): biochemical
One assay deals with T1, CDK2/cyclin A (Homo sapiens, UniProt P24941).
T1 construct: purchased Life Technologies PV 3267
Briefly: Z'-LYTE kinase selectivity assay CDK2/cyclin A. The following applies: read-out: CDK2/CYCLINA % inhibition. The source says:
(§1) In order to compare the kinase selectivity of compounds (I) according to the invention with known prior art compounds the commercially provided SelectScreen® Kinase Profiling Service (Z′-LYTE®) was used (Life Technologies GmbH, Darmstadt, Germany) to investigate the ability of the compounds to inhibit a number of different, representatively selected human kinases. Further details regarding this service are available on the Life Technologies website at
(§2) The Z′-LYTE® biochemical assay employs a fluorescence-based, coupled-enzyme format and is based on the differential sensitivity of phosphorylated and non-phosphorylated peptides to proteolytic cleavage. The peptide substrate is labeled with two fluorophores—one at each end—that make up a FRET pair.
(§3) In the primary reaction, the kinase transfers the gamma-phosphate of ATP to a single tyrosine, serine or threonine residue in a synthetic FRET-peptide. In the secondary reaction, a site-specific protease recognizes and cleaves non-phosphorylated FRET-peptides. Phosphorylation of FRET-peptides suppresses cleavage by the Development Reagent. Cleavage disrupts FRET between the donor (i.e., coumarin) and acceptor (i.e., fluorescein) fluorophores on the FRET-peptide, whereas uncleaved, phosphorylated FRET-peptides maintain FRET. A ratiometric method, which calculates the ratio (the Emission Ratio) of donor emission to acceptor emission after excitation of the donor fluorophore at 400 nm, is used to quantitate reaction progress, as shown in the equation below.
(§4) The Test Compounds are screened at 1 μM.
The 2×CDK2/cyclin A (# PV 3267)/Ser/Thr 12 (Z′-LYTE® Kinase Assay Kit—Ser/Thr 12 Peptide, # PV 3673) mixture is prepared in 50 mM HEPES pH 7.5, 0.01% BRIJ-35, 10 mM MgCl2, 1 mM EGTA. The final 10 μL Kinase Reaction consists of 1.22-10.3 ng CDK2/cyclin A and 2 μM Ser/Thr 12 in 50 mM HEPES pH 7.5, 0.01% BRIJ-35, 10 mM MgCl2. 1 mM EGTA. After the 1 hour Kinase Reaction incubation, 5 μL of a 1:4096 dilution of Development Reagent A is added.

The next assay concerns the target T2, GSK3B (GSK3 beta) (Homo sapiens, UniProt P49841).
T2 construct: purchased Life Technologies PV 3365
Briefly: Z'-LYTE kinase selectivity assay GSK3B.
Text: as §1, §2, §3, §4
The 2×GSK3B (GSK3 beta) (# PV 3365)/Ser/Thr 09 (Z′-LYTE® Kinase Assay Kit—Ser/Thr 9 Peptide, # PV 3324) mixture is prepared in 50 mM HEPES pH 7.5, 0.01% BRIJ-35, 10 mM MgCl2, 1 mM EGTA. The final 10 μL Kinase Reaction consists of 0.17-0.88 ng GSK3B (GSK3 beta) and 2 μM Ser/Thr 09 in 50 mM HEPES pH 7.5, 0.01% BRIJ-35, 10 mM MgCl2, 1 mM EGTA. After the 1 hour Kinase Reaction incubation, 5 μL of a 1:512 dilution of Development Reagent A is added.

In another assay the target is T3, CAMK2D (CaMKII delta) (Homo sapiens, UniProt Q13557).
T3 construct: purchased Life Technologies PV 3373
The experiment in a line: Z'-LYTE kinase selectivity assay CAMK2D.
Text: as §1, §2, §3, §4
The 2×CAMK2D (CaMKII delta) (# PV 3373)/Ser/Thr 04 (Z′-LYTE® Kinase Assay Kit—Ser/Thr 4 Peptide, # PV 3177) mixture is prepared in 50 mM HEPES pH 7.5, 0.01% BRIJ-35, 10 mM MgCl2, 1 mM EGTA, 4 mM CaCl2), 800 U/mL Calmodulin, 0.02% NaN3. The final 10 μL Kinase Reaction consists of 0.08-0.74 ng CAMK2D (CaMKII delta) and 2 μM Ser/Thr 04 in 50 mM HEPES pH 7.5, 0.01% BRIJ-35, 10 mM MgCl2, 1 mM EGTA, 2 mM CaCl2), 400 U/mL Calmodulin, 0.01% NaN3. After the 1 hour Kinase Reaction incubation, 5 μL of a 1:1024 dilution of Development Reagent A is added.

For the next assay, the target named is T4, PDK1 Direct (Homo sapiens, UniProt O15530).
T4 sequence (O15530 1-556): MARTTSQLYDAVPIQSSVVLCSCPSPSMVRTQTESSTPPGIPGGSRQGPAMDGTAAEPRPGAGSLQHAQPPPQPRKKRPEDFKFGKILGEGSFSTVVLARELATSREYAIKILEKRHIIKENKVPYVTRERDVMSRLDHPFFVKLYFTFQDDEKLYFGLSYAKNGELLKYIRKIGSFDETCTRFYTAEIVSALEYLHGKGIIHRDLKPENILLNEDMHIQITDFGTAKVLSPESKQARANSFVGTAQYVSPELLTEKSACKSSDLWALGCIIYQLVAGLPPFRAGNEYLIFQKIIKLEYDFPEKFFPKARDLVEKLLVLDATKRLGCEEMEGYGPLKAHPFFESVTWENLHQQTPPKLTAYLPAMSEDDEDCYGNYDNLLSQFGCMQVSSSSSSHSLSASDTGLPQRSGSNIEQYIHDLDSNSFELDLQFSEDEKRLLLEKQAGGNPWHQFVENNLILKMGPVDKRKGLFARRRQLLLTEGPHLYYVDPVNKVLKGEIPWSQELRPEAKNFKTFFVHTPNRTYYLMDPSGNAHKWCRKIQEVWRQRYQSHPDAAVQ
The experiment in a line: Z'-LYTE kinase selectivity assay PDK1.
Text: as §1, §2, §3, §4
The 2×PDK1 Direct/Ser/Thr 07 (Z′-LYTE® Kinase Assay Kit—Ser/Thr 7 Peptide, # PV 3180) mixture is prepared in 50 mM Tris pH 8.5, 0.01% BRIJ-35, 10 mM MgCl2, 1 mM EGTA, 0.02% NaN3. The final 10 μL Kinase Reaction consists of 5.04-29.4 ng PDK1 Direct and 2 μM Ser/Thr 07 in 50 mM Tris/HEPES pH 8.0, 0.01% BRIJ-35, 10 mM MgCl2, 1 mM EGTA, 0.01% NaN3. After the 1 hour Kinase Reaction incubation, 5 μL of a 1:65000 dilution of Development Reagent A is added.

T2 sequence (P49841 whole entry): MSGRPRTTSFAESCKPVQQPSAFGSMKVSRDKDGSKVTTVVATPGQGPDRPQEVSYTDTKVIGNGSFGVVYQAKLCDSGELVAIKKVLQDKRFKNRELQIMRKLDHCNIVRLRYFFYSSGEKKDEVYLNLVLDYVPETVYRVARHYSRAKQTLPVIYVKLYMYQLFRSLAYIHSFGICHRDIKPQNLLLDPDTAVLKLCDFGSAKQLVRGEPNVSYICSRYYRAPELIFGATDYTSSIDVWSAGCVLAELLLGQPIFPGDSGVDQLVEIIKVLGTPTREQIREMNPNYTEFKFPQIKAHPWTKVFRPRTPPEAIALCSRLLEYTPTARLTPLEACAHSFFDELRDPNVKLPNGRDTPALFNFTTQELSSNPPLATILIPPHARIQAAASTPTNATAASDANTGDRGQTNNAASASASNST

Regarding `C[C@@H]1Cc2nn(C)c(-c3ccccc3)c2-c2nc(Nc3ccn(CCN4CCOCC4)n3)ncc21` [Compound I-2], the inhibition at 1 µM came out at 56% at CDK2/cyclin A, 10% on GSK3B (GSK3 beta), 47% against CAMK2D (CaMKII delta) and 1% on PDK1 Direct.
As for `CC(O)CN1CCN(CCn2ccc(Nc3ncc4c(n3)-c3c(nn(C)c3-c3ccccc3)C[C@H]4C)n2)CC1` (stereo partly shown) [Compound I-7], the inhibition at 1 µM at CDK2/cyclin A turned out to be 74%; at GSK3B (GSK3 beta) it was 10%; against CAMK2D (CaMKII delta), 64%; against PDK1 Direct, 3%.
On to `COCCN1CCN(CCn2ccc(Nc3ncc4c(n3)-c3c(nn(C)c3-c3ccccc3)C[C@H]4C)n2)CC1` [Compound I-11], for which the inhibition at 1 µM was determined as 53% on CDK2/cyclin A, 8% on GSK3B (GSK3 beta), 38% on CAMK2D (CaMKII delta) and 20% on PDK1 Direct.
For `C[C@@H]1Cc2nn(C)c(-c3ccccc3)c2-c2nc(Nc3ccn(CCN4CCN(CC5CCCO5)CC4)n3)ncc21` (stereo partly shown) [Compound I-9] the same measures were 63%, 9%, 69% and 6%.
For `C[C@@H]1Cc2nn(C)c(-c3ccccc3)c2-c2nc(Nc3ccn(CCN4CCN(CC(=O)OC5CCOCC5)CC4)n3)ncc21` [Compound I-8] the same measures were 49%, 14%, 40% and 5%.
For `C[C@@H]1Cc2nn(C)c(-c3ccccc3)c2-c2nc(Nc3ccn(CCN4CCN(C)CC4)n3)ncc21` [Compound I-1] the same measures were 72%, 14%, 53% and -2%.
Turning to `C[C@@H]1Cc2nn(C)c(-c3ccccc3)c2-c2nc(Nc3ccn(CCN4CCN(CC(C)(C)O)CC4)n3)ncc21` [Compound I-3], the inhibition at 1 µM on CDK2/cyclin A was 66%; on GSK3B (GSK3 beta) it was 9%; against CAMK2D (CaMKII delta), 58%; at PDK1 Direct, 9%.
